# According to patent US7070983B2, “Mutant Pseudomonas putida strains and methods of use thereof” (priority 2003, dated 2006):
# Experiments:
# [1] = test system: P. putida wild-type KH146-2; format: cell-based, Pseudomonas putida; details: LBH medium, 30° C., 3 days
# Description: (§1) Pseudomonas putida KH146-2 was originally isolated from soil for the capability of growing in the presence of 4-hydroxybenzoate (Chen et al., ((1998) Res Communs Biochem and Cell & Mol Biol 2: 253–274)). HBM medium consists of 50 mM sodium potassium phosphate buffer (pH6.8), 0.1% (NH4)2SO4 and Hutner's base. Hutner's base cotained (per liter) nitrilotriacetic acid, 200 mg; CaCl2.2H2O, 67 mg; (NH4)6Mo7O24.4H2O, 185 μg; MgSO4, 289 mg; EDTA, 2.5 mg; ZnSO4.7H2O, 11 mg; FeSO4.7H2O, 7 mg; MnSO4.H2O, 1.5 mg; CuSO4.5H2O, 390 μg; Co(NO3)2.6H2O, 250 μg, and Na2B4O7.10H2O, 180 μg. LB medium contains 1% tryptone, 0.5% yeast extract, and 1% NaCl (adjusted pH 6.8). LBH medium contains 1% tryptone and 0.5% yeast extract in HBM medium. The bacteria were grown at 30° C. in a shaker at 200 rpm. For tolerance tests, HBM or LBH agar plates containing serially increasing concentrations of an organic chemical were employed. Routinely, 20 to 40 bacterial strains were spot-transplanted with the aid of tooth pick on an agar plate, followed by incubation at 30° C. for 3 days.
# [2] = test system: P. putida strain no. 12 (Gen mutant); test: Tolerance test (MIC) on agar plates; format: cell-based, Pseudomonas putida
# Description: as §1
# [3] = test system: P. putida strain no. 14 (Rif mutant); test: Tolerance test (MIC) on agar plates; format: cell-based, Pseudomonas putida
# Description: as §1
# [4] = test system: P. putida strain no. 15 (Rif mutant); test: Tolerance test (MIC) on agar plates; format: cell-based, Pseudomonas putida
# Description: as §1
# [5] = test system: P. putida strain no. 17 (Rif mutant); test: Tolerance test (MIC) on agar plates; format: cell-based, Pseudomonas putida
# Description: as §1
# [6] = test system: P. putida strain no. 18 (Rif mutant); test: Tolerance test (MIC) on agar plates; format: cell-based, Pseudomonas putida; details: LBH medium
# Description: as §1
# [7] = test system: P. putida strain no. 20 (Rif mutant); test: Tolerance test (MIC) on agar plates; format: cell-based, Pseudomonas putida; details: LBH medium
# Description: as §1
# [8] = test system: P. putida strain no. 3 (Str mutant); test: Tolerance test (MIC) on agar plates; format: cell-based, Pseudomonas putida
# Description: as §1
# [9] = test system: P. putida strain no. 9 (Str mutant); test: Tolerance test (MIC) on agar plates; format: cell-based, Pseudomonas putida
# Description: as §1
# [10] = test system: 4HBA-tolerant Str, Gen and Rif mutants of P. putida KH146-2; format: cell-based, Pseudomonas putida; details: the mutants; 4HBA as the sole carbon source
# Description: as §1
# Using several strains randomly chosen as representatives of 4HBA-tolerant mutants, we examined the tolerance level to various organic compounds. […] Tolerance levels to other organic compounds were also examined.
# [11] = test system: strain no. 3 carrying plasmid pYI433 containing the wild-type rpsL gene; test: Complementation experiment, 4HBA-tolerance; format: cell-based, Pseudomonas putida; details: strain no. 3 with plasmid containing the rpsL gene
# From the text: (§2) To clone the rpsL gene, a 0.9-kb DNA region covering whole rpsL was amplified from the chromosomal DNA of P. putida KH146-2 using KDO DNA polymerase (Toyobo Biochemicals, Osaka). Oligonucleotide primers were designed according to the rpoC-rpsL-rpsG sequence of P. putida KT2440 (www.tigr.org); 5′-[…]-3′ (SEQ ID NO:7—nucleotides [nt]−368 to −341 upstream of rpsL) and 5′-[…]-3′ (SEQ ID NO:8—complementary to nt 107 to 135 downstream of rpsL). The amplified DNA fragments were cloned into plasmid pUC118 (Vieira and Messing, (1987) Methods Enzymol 153: 3–11) to confirm the sequence, then excised from the plasmids as a BamHI-SphI fragment using the restriction sites in the multi-cloning sequence of the vector and inserted between the BglII and SphI sites of the E. coli-Pseudomonas shuttle vector pNIT6010 carrying tet^R, a derivative of pNIT6011 (Nishijyo et al. (2001) Mol Microbiol 40:917–931). The resultant plasmid pYI433, as well as vector control pNIT6010, was introduced into the Str mutant no. 3 (str-1) by conjugation using E. coli HB101/pRK2013 as the helper (Comai et al. (1983) Plasmid 10:21–30). Fifty μg ml^−1 of tetracycline was used for selection of transformants.
# (§3) […]
# [12] = test system: strain no. 3 harbouring a plasmid without rpsL; test: Complementation experiment, 4HBA-tolerance; format: cell-based, Pseudomonas putida
# From the text: as §2, §3
# [13] = test system: Strain no. 55 (Str Gen double mutant); test: 4HBA tolerance after growth on LB without 4HBA; format: cell-based, Pseudomonas putida; details: strains grown once on LB medium without 4HBA
# [14] = test system: 4HBA-adapted mutants of wild-type strain KH146-2; test: 4HBA tolerance by sequential adaptation; format: cell-based, Pseudomonas putida; details: mutants obtained by step by step adaptation
# Description: Wild-type strain KH146-2 was adapted, step by step, to grow in HBM medium containing increasing concentrations (from 0.8% to 5%) of 4HBA. In steps using high concentrations (>3%) of 4HBA, adaptation required a longer term incubation (7˜10 days) for each step. In certain steps, the 4HBA-adapted mutants were isolated using agar plates (containing the adapted concentrations of 4HBA), on which tolerant mutants formed big size colonies.
# Rif mutant no. 17 = details: read-out: apparent Km of 4HBA uptake, 50 to 500 μM 4HBA
# Description: (§4) The method described by Thanassi et al. ((1995) J Bacteriol 177:998–1007) was used with some modifications. The bacteria were grown to mid-log phase in HBM medium containing 0.3% 4HBA, washed and resuspended in 0.3% succinate-HBM medium to give OD660=0.7. A 5 ml-aliquot of the bacterial suspension in a 100 ml flask was incubated in a shaker bath. A 0.5 μCi [carboxyl-^14C]4HBA (55 mCi mmol^−1, ARC.) with unlabelled 4HBA at increasing concentrations, were added to the 5 ml bacterial suspension and incubation was continued. At the indicated time, a 0.5 ml aliquot of sample was removed and filtered using a nitrocellulose filter (0.45 μm pore size, Millipore Corp, Bedford, Mass.) which had previously been washed with 2 ml of HBM medium containing 5 mM 4HBA. The sample was applied with a Pipetman, followed by immediate washing with 3 ml of 5 mM 4HBA-HBM medium. The membrane filter was dried, and transferred to a scintillation vial containing Brey's solution, and radioactivity was measured in scintillation spectrometer. From the rate of uptake and the concentration of 4HBA, apparent Km was determined by reciprocal plotting as described by Beman et al ((1983) J Bacteriol 156:1107–1117).
# (§5) Therefore, we first grew cells to mid-log phase in HBM medium containing 0.3% 4HBA and succinate, washed, and resuspended in HBM medium containing only succinate. [^14C]4HBA was then added with unlabeled 4HBA at various (50 to 500 μM) concentrations.
# Str mutant no. 3 = details: read-out: apparent Km of 4HBA uptake, 50 to 500 μM 4HBA
# Description: as §4, §5
# wild-type KH146-2 = details: read-out: apparent Km of 4HBA uptake; wild-type strain; 50 to 500 μM 4HBA
# Description: as §4, §5
# [15] = test system: Str Gen double mutant no. 55; test: Uptake of [14C]4HBA; format: cell-based, Pseudomonas putida; details: [14C]4HBA at 100 μM, FIG. 3
# Description: as §4
# (§6) Therefore, we first grew cells to mid-log phase in HBM medium containing 0.3% 4HBA and succinate, washed, and resuspended in HBM medium containing only succinate. […]
# Str and Rif mutants = format: cell-based, Pseudomonas putida
# Description: as §4, §6
# [16] = test system: wild-type and mutant strains; test: Determination of protein synthesis ([14C]leucine incorporation); format: cell-based, Pseudomonas putida; details: absence or presence (0.6 or 1.2%) of 4HBA; data not shown
# parental strain KH146-2 = test: Antibiotic growth suppression on LB agar; format: cell-based, Pseudomonas putida
# From the text: (§7) Spontaneous streptomycin-resistant (Str), gentamicin-resistant (Gen) or rifampicin-resistant (Rif) mutants were obtained from colonies that grew within 3 days after wild-type cells were spread on LB agar containing various concentrations of antibiotic.
# We first isolated a number of spontaneous streptomycin-resistant (Str), gentamicin-resistant (Gen) and rifampicin-resistant (Rif) mutants of P. putida KH146-2. These mutants appeared at a frequency of 10^−5–10^−6 when KH146-2 cells were spread on LB agar containing various amounts of antibiotics. […] Forty mutants resistant to each antibiotic were randomly selected and examined for tolerance to 4-hydroxybenzoic acid (4HBA). 4HBA-tolerant strains, which could grow in the presence of 1% 4HBA, were detected among these antibiotic resistant mutants at a high frequency of 3 to 15% (Table 1). The highest frequency (15%) was detected in the mutants selected with 1000 μg ml^−1 of streptomycin. These 4HBA-tolerant isolates all grew as well as the parent strain on LB agar.
# [17] = test system: P. putida strain no. 14 (rif-1); test: Resistance level to antibiotic on LB agar; format: cell-based, Pseudomonas putida; details: 1 days on LB agar
# From the text: as §7
# [18] = test system: P. putida strain no. 15 (rif-2); test: Resistance level to antibiotic on LB agar; format: cell-based, Pseudomonas putida; details: 1 days on LB agar
# From the text: as §7
# [19] = test system: P. putida strain no. 17 (rif-3); test: Resistance level to antibiotic on LB agar; format: cell-based, Pseudomonas putida; details: 1 days on LB agar
# From the text: as §7
# [20] = test system: P. putida strain no. 18 (rif-4); test: Resistance level to antibiotic on LB agar; format: cell-based, Pseudomonas putida; details: 1 days on LB agar
# From the text: as §7
# [21] = test system: P. putida strain no. 19 (rif-5); test: Resistance level to antibiotic on LB agar; format: cell-based, Pseudomonas putida; details: 1 days on LB agar
# From the text: as §7
# [22] = test system: P. putida strain no. 20 (rif-5); test: Resistance level to antibiotic on LB agar; format: cell-based, Pseudomonas putida; details: 1 days on LB agar
# From the text: as §7
# [23] = test system: P. putida strain no. 21 (rif-3); test: Resistance level to antibiotic on LB agar; format: cell-based, Pseudomonas putida; details: 1 days on LB agar
# From the text: as §7
# [24] = test system: P. putida strain no. 22 (rif-3); test: Resistance level to antibiotic on LB agar; format: cell-based, Pseudomonas putida; details: 1 days on LB agar
# From the text: as §7
# [25] = test system: P. putida strain no. 23 (rif-4); test: Resistance level to antibiotic on LB agar; format: cell-based, Pseudomonas putida; details: 1 days on LB agar
# From the text: as §7
# [26] = test system: P. putida strain no. 24 (rif-4); test: Resistance level to antibiotic on LB agar; format: cell-based, Pseudomonas putida; details: 1 days on LB agar
# From the text: as §7
# [27] = test system: P. putida strain no. 11 (gen); test: Resistance level to antibiotic on LB agar; format: cell-based, Pseudomonas putida; details: 1 days on LB agar
# From the text: as §7
# [28] = test system: P. putida strain no. 12 (gen); test: Resistance level to antibiotic on LB agar; format: cell-based, Pseudomonas putida; details: 1 days on LB agar
# From the text: as §7
# [29] = test system: P. putida strain no. 13 (gen); test: Resistance level to antibiotic on LB agar; format: cell-based, Pseudomonas putida; details: 1 days on LB agar
# From the text: as §7
# [30] = HBM medium, 4HBA as a sole carbon source
compound,measurement,setting,value
"O=C(O)c1ccc(O)cc1 [4HBA, 4-hydroxybenzoate]",Tolerance (MIC),[1],1.4 ± 0.1%
same,Tolerance (MIC),[2]; [30],(1.6 ± 0.2) %
same,Tolerance (MIC),[2]; LBH medium,1.9 ± 0.3%
same,Tolerance (MIC),[3]; [30],(1.4 ± 0.2) %
same,Tolerance (MIC),[3]; LBH medium,1.8 ± 0.2%
same,Tolerance (MIC),[4]; [30],(1.2 ± 0.2) %
same,Tolerance (MIC),[4]; LBH medium,1.8 ± 0.2%
same,Tolerance (MIC),[5]; [30],(1.3 ± 0.1) %
same,Tolerance (MIC),[5]; LBH medium,1.8 ± 0.2%
same,Tolerance (MIC),[6],2.0 ± 0.2%
same,Tolerance (MIC),[7],1.9 ± 0.1%
same,Tolerance (MIC),[8]; [30],(1.7 ± 0.1) %
same,Tolerance (MIC),[8]; LBH medium,1.9 ± 0.1%
same,Tolerance (MIC),[9]; [30],(1.3 ± 0.2) %
same,Tolerance (MIC),[9]; LBH medium,1.6 ± 0.2%
same,minimum inhibitory concentration (MIC),[10],1.7%
same,4HBA-tolerance,[11],1%
same,4HBA-tolerance,[12],1.6%
same,Tolerance to 4HBA,[13]; 3% 4HBA,still showed a tolerance
same,Growth on 4HBA-containing medium,[13]; 5% 4HBA,no longer grew
same,4HBA concentration tolerated,[14],up to 5%
same,Km,Rif mutant no. 17,620 µM
same,Km,Str mutant no. 3,470 µM
same,Km,wild-type KH146-2,240 µM
same,uptake of 4HBA,[15],reduced uptake
same,Km values greater than wild-type,Str and Rif mutants; Str and Rif mutants vs wild-type,2 to 3 fold
same,"apparent uptake by the membrane transport system, reduction compared to wild-type",Str and Rif mutants; the mutants vs wild-type strain,2 to 3 fold
same,"degree of suppression of protein synthesis, wild-type vs mutant strains",[16],no difference
CO[C@H]1/C=C/O[C@@]2(C)Oc3c(C)c(O)c4c(O)c(c(/C=N/N5CCN(C)CC5)c(O)c4c3C2=O)NC(=O)/C(C)=C\C=C\[C@H](C)[C@H](O)[C@@H](C)[C@@H](O)[C@@H](C)[C@H](OC(C)=O)[C@@H]1C [rifampicin],Concentration completely suppressing growth,parental strain KH146-2,10 µg/mL
same,Resistance level to antibiotic,[17],>500 (RIF) μg ml^−1
same,Resistance level to antibiotic,[18],>500 (RIF) μg ml^−1
same,Resistance level to antibiotic,[19],500 (RIF) μg ml^−1
same,Resistance level to antibiotic,[20],500 (RIF) μg ml^−1
same,Resistance level to antibiotic,[21],500 (RIF) μg ml^−1
same,Resistance level to antibiotic,[22],500 (RIF) μg ml^−1
same,Resistance level to antibiotic,[23],500 (RIF) μg ml^−1
same,Resistance level to antibiotic,[24],500 (RIF) μg ml^−1
same,Resistance level to antibiotic,[25],500 (RIF) μg ml^−1
same,Resistance level to antibiotic,[26],500 (RIF) μg ml^−1
gentamicin,Concentration completely suppressing growth,parental strain KH146-2,12 µg/mL
same,Resistance level to antibiotic,[27],50 (GEN) μg ml^−1
same,Resistance level to antibiotic,[28],50 (GEN) μg ml^−1
same,Resistance level to antibiotic,[29],50 (GEN) μg ml^−1
